“Also recorded” adds a separate entry of the source. Read-outs that look alike come from different tables or passages of the source.
Legend:
VLA-4 (a4b1) = VLA-4 (a4b1) (Homo sapiens (Human), UniProt P05556+P13612); experiment: sVCAM flow cytometry cell-based assay (inhibition of soluble VCAM-1 binding to G2 ALL cells);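 note: compounds at 0.1 to 1000 nM preincubated 30 min with G2 ALL cells, then VCAM/Fc added for 30 min, bound VCAM-1 detected by PE secondary antibody, percent binding cells by flow cytometry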
Sequence of VLA-4 (a4b1) (P13612 34-1032): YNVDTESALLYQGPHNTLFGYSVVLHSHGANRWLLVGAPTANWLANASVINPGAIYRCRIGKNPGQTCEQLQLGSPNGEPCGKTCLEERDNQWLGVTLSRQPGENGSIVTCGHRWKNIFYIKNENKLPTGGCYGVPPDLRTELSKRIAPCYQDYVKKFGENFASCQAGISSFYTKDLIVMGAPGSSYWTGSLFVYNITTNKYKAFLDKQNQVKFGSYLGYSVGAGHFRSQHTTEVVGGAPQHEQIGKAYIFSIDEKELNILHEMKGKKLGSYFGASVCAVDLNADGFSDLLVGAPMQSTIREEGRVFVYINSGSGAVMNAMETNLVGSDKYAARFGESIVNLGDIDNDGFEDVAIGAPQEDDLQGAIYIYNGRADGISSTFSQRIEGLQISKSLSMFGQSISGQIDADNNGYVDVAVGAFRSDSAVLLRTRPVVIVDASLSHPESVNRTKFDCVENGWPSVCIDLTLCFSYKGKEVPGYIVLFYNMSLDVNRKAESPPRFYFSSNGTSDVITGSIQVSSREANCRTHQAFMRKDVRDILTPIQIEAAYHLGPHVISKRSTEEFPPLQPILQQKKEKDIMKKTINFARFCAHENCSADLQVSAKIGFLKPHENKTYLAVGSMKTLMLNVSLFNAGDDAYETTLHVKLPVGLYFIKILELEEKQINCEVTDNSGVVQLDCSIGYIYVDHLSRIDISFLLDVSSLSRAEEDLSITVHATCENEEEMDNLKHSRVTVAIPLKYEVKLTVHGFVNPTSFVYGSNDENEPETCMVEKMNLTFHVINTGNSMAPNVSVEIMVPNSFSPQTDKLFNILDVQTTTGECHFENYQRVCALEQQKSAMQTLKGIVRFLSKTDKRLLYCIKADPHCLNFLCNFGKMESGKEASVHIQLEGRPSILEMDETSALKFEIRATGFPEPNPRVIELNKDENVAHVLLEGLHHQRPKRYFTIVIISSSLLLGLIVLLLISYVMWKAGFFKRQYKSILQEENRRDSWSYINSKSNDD
Sequence of VLA-4 (a4b1) (P05556 21-798): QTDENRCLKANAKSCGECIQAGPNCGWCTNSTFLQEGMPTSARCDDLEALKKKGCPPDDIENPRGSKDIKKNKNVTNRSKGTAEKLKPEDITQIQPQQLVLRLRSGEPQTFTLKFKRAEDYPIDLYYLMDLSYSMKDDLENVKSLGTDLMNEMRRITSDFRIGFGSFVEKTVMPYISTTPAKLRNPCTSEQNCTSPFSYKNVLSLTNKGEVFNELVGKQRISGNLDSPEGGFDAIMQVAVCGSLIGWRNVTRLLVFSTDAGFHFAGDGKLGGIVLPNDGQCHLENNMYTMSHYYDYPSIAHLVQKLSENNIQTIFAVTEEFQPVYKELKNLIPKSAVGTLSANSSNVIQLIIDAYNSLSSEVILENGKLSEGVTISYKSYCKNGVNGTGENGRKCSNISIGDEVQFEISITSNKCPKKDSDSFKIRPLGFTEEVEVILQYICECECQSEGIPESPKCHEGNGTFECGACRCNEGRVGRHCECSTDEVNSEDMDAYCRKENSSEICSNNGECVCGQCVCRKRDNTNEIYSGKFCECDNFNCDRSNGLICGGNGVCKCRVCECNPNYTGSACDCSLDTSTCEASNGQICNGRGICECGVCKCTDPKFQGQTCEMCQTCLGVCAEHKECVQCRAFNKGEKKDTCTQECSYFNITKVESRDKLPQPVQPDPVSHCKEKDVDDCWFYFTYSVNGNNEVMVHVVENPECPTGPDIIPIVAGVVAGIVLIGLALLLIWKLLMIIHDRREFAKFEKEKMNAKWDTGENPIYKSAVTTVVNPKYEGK
Description: VLA-4 (a4b1) inhibitor compounds were tested for their ability to inhibit the binding of soluble VCAM-1 to human G2 acute lymphoblastic leukemia (ALL) cells. Briefly, G2 ALL cells are pre-incubated with increasing concentrations (0.1 to 1000 nM) of compounds for 30 minutes. Soluble VCAM/Fc chimera protein (R & D systems) is then added to the mixture and the cells incubated for an additional 30 minutes. Afterwards, cells are washed and VCAM-1 is detected using a PE-conjugated secondary polyclonal antibody. In each experiment, an aliquot of cells are stained with isotype control antibodies to serve as a negative control. The percentage of VCAM-1 binding cells was then determined by flow cytometry.

[1] = tested on: hematopoietic stem/progenitor cells (HSPCs); experiment: HSPC mobilization into peripheral blood, colony forming unit (CFU) assay; conditions: mice; for HSPC mobilization, result in words: test concentration or dose not given here; for No. CFU (×10^3)/mL ± SD, 6 hr: test concentration or dose not given here
[2] = as listed in TABLE 17, read-out: sVCAM IC50
[3] = inhibition of sVCAM-1 binding to human G2 ALL cells (TABLE 3), read-out: SVCAM-1, IC50
[4] = alone or in combination with Plerixafor and tGroβ, peripheral blood, 2 hr (TABLE 17)
[5] = alone or in combination with Plerixafor and tGroβ, peripheral blood, 4 hr (TABLE 17)
[6] = alone or in combination with Plerixafor and tGroβ, peripheral blood, 6 hr (TABLE 17)
[7] = as listed in TABLE 6, read-out: sVCAM IC50
[8] = single s.c. injection, peripheral blood, 0.25 hr post dose (TABLE 6)
[9] = single s.c. injection, peripheral blood, 2 hr post dose (TABLE 6)
[10] = single s.c. injection, peripheral blood, 4 hr post dose (TABLE 6)
[11] = as listed in TABLE 9, read-out: sVCAM IC50
[12] = single dose, peripheral blood, 2 hr post dose (TABLE 9)
[13] = single dose, peripheral blood, 4 hr post dose (TABLE 9)
[14] = single dose, peripheral blood, 6 hr post dose (TABLE 9)
[15] = as listed in TABLE 8, read-out: sVCAM IC50
[16] = single dose, peripheral blood, 0.25 hr post dose (TABLE 8)
[17] = single dose, peripheral blood, 2 hr post dose (TABLE 8)
[18] = single dose, peripheral blood, 4 hr post dose (TABLE 8)

Compound | IC50 (VLA-4 (a4b1); [3]) [pM] | IC50 (VLA-4 (a4b1); [7]) [pM] | No. CFU (×10^3)/mL ± SD, 0.25 hr [1, 8] | No. CFU (×10^3)/mL ± SD, 2 hr [1, 9] | No. CFU (×10^3)/mL ± SD, 4 hr [1, 10] | IC50 (VLA-4 (a4b1); [11]) [pM] | HSPC mobilization, result in words ([1]; single dose) | No. CFU (×10^3)/mL ± SD, 2 hr [1, 12] | No. CFU (×10^3)/mL ± SD, 4 hr [1, 13] | No. CFU (×10^3)/mL ± SD, 6 hr [1, 14] | also measured
COCCOCCOCCOCc1cc(OC)c(-c2ccc(C[C@H](NC(=O)c3c(Cl)cc(C(=O)O)cc3Cl)C(=O)O)cc2)c(OC)c1 [Example C4] | 1690 |  |  |  |  |  |  |  |  |  | IC50 (VLA-4 (a4b1); as listed in TABLE 5, read-out: sVCAM IC50): 1690 pM; IC50 (VLA-4 (a4b1); [2]): 1690 pM; time to which HSPC mobilization is extended after a single dose [1]: ≤ 2 h; No. CFU (×10^3)/mL ± SD, 2 hr [1, 4]: 2.91 ± 0.83 (×10^3)/mL; No. CFU (×10^3)/mL ± SD, 4 hr [1, 5]: 0.53 ± 0.16 (×10^3)/mL; No. CFU (×10^3)/mL ± SD, 6 hr [1, 6]: 0.28 ± 0.09 (×10^3)/mL; No. CFU (×10^3)/mL ± SD, 0.25 hr ([1]; single s.c. injection, peripheral blood, 0.25 hr post dose (TABLE 5)): 4.73 ± 1.31 (×10^3)/mL; No. CFU (×10^3)/mL ± SD, 2 hr ([1]; single s.c. injection, peripheral blood, 2 hr post dose (TABLE 5)): 1.47 ± 0.51 (×10^3)/mL; No. CFU (×10^3)/mL ± SD, 4 hr ([1]; single s.c. injection, peripheral blood, 4 hr post dose (TABLE 5)): 0.49 ± 0.12 (×10^3)/mL
COc1cccc(OC)c1-c1ccc(C[C@H](NC(=O)[C@]2(C)CCCN2S(=O)(=O)c2cc(Cl)cc(Cl)c2)C(=O)O)cc1 [Example C5] | 3590 | 3590 | 2.78 ± 0.48 (×10^3)/mL | 1.38 ± 0.53 (×10^3)/mL | 0.31 ± 0.09 (×10^3)/mL |  |  |  |  |  | 
CCOCc1cc(OC)c(-c2ccc(C[C@H](NC(=O)[C@@H]3CCCN3S(=O)(=O)c3cc(Cl)cc(Cl)c3)C(=O)O)cc2)c(OC)c1 [Example C6] | 445 | 445 | 2.58 ± 0.65 (×10^3)/mL | 2.12 ± 0.70 (×10^3)/mL | 0.46 ± 0.20 (×10^3)/mL |  |  |  |  |  | 
COCCOCCOCCOCc1cc(OC)c(-c2ccc(C[C@H](NC(=O)[C@@H]3CCCN3S(=O)(=O)c3cc(Cl)cc(Cl)c3)C(=O)O)cc2)c(OC)c1 [Example C7] | 194 | 194 | 2.57 ± 0.62 (×10^3)/mL | 2.52 ± 0.37 (×10^3)/mL | 0.50 ± 0.18 (×10^3)/mL | 194 | returning to baseline by 4 hours and clearly at baseline by 6 hours | 2.65 ± 1.39 (×10^3)/mL | 0.44 ± 0.17 (×10^3)/mL | 0.11 ± 0.08 (×10^3)/mL | 
COc1cc(CO)cc(OC)c1-c1ccc(C[C@H](NC(=O)[C@@H]2CCCN2S(=O)(=O)c2cc(Cl)cc(Cl)c2)C(=O)O)cc1 [Example C8] | 199 | 199 | 2.74 ± 0.69 (×10^3)/mL | 2.10 ± 0.85 (×10^3)/mL | 0.42 ± 0.15 (×10^3)/mL |  | have returned to baseline |  |  |  | IC50 (VLA-4 (a4b1); as listed in TABLE 7, read-out: sVCAM IC50): 199 pM; No. CFU (×10^3)/mL ± SD, 0.5 hr ([1]; single dose, peripheral blood, 0.5 hr post dose (TABLE 7)): 0.85 ± 0.30 (×10^3)/mL; No. CFU (×10^3)/mL ± SD, 2 hr ([1]; single dose, peripheral blood, 2 hr post dose (TABLE 7)): 0.87 ± 0.30 (×10^3)/mL; No. CFU (×10^3)/mL ± SD, 4 hr ([1]; single dose, peripheral blood, 4 hr post dose (TABLE 7)): 0.27 ± 0.36 (×10^3)/mL
COCCOCCOCCOCCOCCOCCOCCOCCOCCOCCOCCOCCOCCOCCOCCOCCOCCOCCOCCOCCOCCOCCOCCOCCn1cc(COCc2cc(OC)c(-c3ccc(C[C@H](NC(=O)[C@@H]4CCCN4S(=O)(=O)c4cc(Cl)cc(Cl)c4)C(=O)O)cc3)c(OC)c2)nn1 [Example C9, (S)-3-(4′-(((1-(2,5,8,11,14,17,20,23,26,29,32,35,38,41,44,47,50,53,56,59,62,65,68,71-tetracosaoxatriheptacontan-73-yl)-1H-1,2,3-triazol-4-yl)methoxy)methyl)-2′,6′-dimethoxy-[1,1′-biphenyl]-4-yl)-2-((S)-1-((3,5-dichlorophenyl)sulfonyl)pyrrolidine-2-carboxamido)propanoic Acid] | 579 |  |  |  |  |  | returning to baseline by 4 hours; also recorded: inferior mobilization at 4 hours compared to Example 3 |  |  |  | IC50 (VLA-4 (a4b1); [15]): 579 pM; No. CFU (×10^3)/mL ± SD, 0.25 hr [1, 16]: 3.72 ± 1.18 (×10^3)/mL; No. CFU (×10^3)/mL ± SD, 2 hr [1, 17]: 3.09 ± 1.06 (×10^3)/mL; No. CFU (×10^3)/mL ± SD, 4 hr [1, 18]: 0.57 ± 0.28 (×10^3)/mL
COCCOCCOCCOCCOCCOCCOCCOCCOCCOCCOCCOCCOCCOCCOCCOCCOCCOCCOCCOCCOCCOCCOCCOCCOCCOCCOCCOCCOCCOCCOCCOCCOCCOCCOCCOCCn1cc(COCc2cc(OC)c(-c3ccc(C[C@H](NC(=O)[C@@H]4CCCN4S(=O)(=O)c4cc(Cl)cc(Cl)c4)C(=O)O)cc3)c(OC)c2)nn1 [Example C10, (S)-3-(4′-(((1-(2,5,8,11,14,17,20,23,26,29,32,35,38,41,44,47,50,53,56,59,62,65,68,71,74,77,80,83, 86,89,92,95,98,101,104,107-hexatriacontaoxanonahectan-109-yl)-1H-1,2,3-triazol-4-yl)methoxy)methyl)-2′,6′-dimethoxy-[1,1′-biphenyl]-4-yl)-2-((S)-1-((3,5-dichlorophenyl)sulfonyl)pyrrolidine-2-carboxamido)propanoic Acid] | 552 |  |  |  |  |  | returning to baseline by 4 hours; also recorded: inferior mobilization at 4 hours compared to Example 3 |  |  |  | IC50 (VLA-4 (a4b1); [15]): 552 pM; No. CFU (×10^3)/mL ± SD, 0.25 hr [1, 16]: 3.87 ± 1.33 (×10^3)/mL; No. CFU (×10^3)/mL ± SD, 2 hr [1, 17]: 3.37 ± 1.12 (×10^3)/mL; No. CFU (×10^3)/mL ± SD, 4 hr [1, 18]: 0.90 ± 0.52 (×10^3)/mL
COCCOCCOCCOCCOCCOCCOCCOCCOCc1cc(OC)c(-c2ccc(C[C@H](NC(=O)[C@@H]3CCCN3S(=O)(=O)c3cc(Cl)cc(Cl)c3)C(=O)O)cc2)c(OC)c1 [Example C12, (2S)-2-[[(2S)-1-(3,5-dichlorophenyl)sulfonylpyrrolidine-2-carbonyl]amino]-3-[4-[2,6-dimethoxy-4-[2-[2-[2-[2-[2-[2-[2-(2-methoxyethoxy)ethoxy]ethoxy]ethoxy]ethoxy]ethoxy]ethoxy]ethoxymethyl]phenyl]phenyl]propanoic Acid] | 573 |  |  |  |  | 573 | returning to baseline by 4 hours and clearly at baseline by 6 hours; also recorded: do not provide the same extended mobilization as the 24 PEG unit analogues | 2.42 ± 1.06 (×10^3)/mL | 1.19 ± 0.53 (×10^3)/mL | 0.24 ± 0.15 (×10^3)/mL | IC50 (VLA-4 (a4b1); as listed in TABLE 11, read-out: sVCAM IC50): 573 pM; IC50 (VLA-4 (a4b1); [2]): 573 pM; time to which HSPC mobilization is extended after a single dose [1]: ≤ 2 h; No. CFU (×10^3)/mL ± SD, 2 hr [1, 4]: 4.02 ± 1.99 (×10^3)/mL; No. CFU (×10^3)/mL ± SD, 4 hr [1, 5]: 0.90 ± 0.61 (×10^3)/mL; No. CFU (×10^3)/mL ± SD, 6 hr [1, 6]: 0.25 ± 0.08 (×10^3)/mL; No. CFU (x10^3)/mL ± SD, 2 hr ([1]; single dose, peripheral blood, 2 hr post dose (TABLE 11)): 0.78 ± 0.17 (x10^3)/mL; No. CFU (x10^3)/mL ± SD, 4 hr ([1]; single dose, peripheral blood, 4 hr post dose (TABLE 11)): 0.58 ± 0.19 (x10^3)/mL; No. CFU (x10^3)/mL ± SD, 6 hr ([1]; single dose, peripheral blood, 6 hr post dose (TABLE 11)): 0.22 ± 0.10 (x10^3)/mL; No. CFU (x10^3)/mL ± SD, 24 hr ([1]; single dose, peripheral blood, 24 hr post dose (TABLE 11)): 0.14 ± 0.07 (x10^3)/mL
COCCOCCOCCOCCOCCOCCOCCOCCOCCOCCOCCOCCOCc1cc(OC)c(-c2ccc(C[C@H](NC(=O)[C@@H]3CCCN3S(=O)(=O)c3cc(Cl)cc(Cl)c3)C(=O)O)cc2)c(OC)c1 [Example C13, (S)-2-((S)-1-((3,5-dichlorophenyl)sulfonyl)pyrrolidine-2-carboxamido)-3-(2′,6′-dimethoxy-4′-(2,5,8,11,14,17,20,23,26,29,32,35,38-tridecaoxanonatriacontyl)-[1,1′-biphenyl]-4-yl)propanoic Acid] | 673 |  |  |  |  | 673 | returning to baseline by 4 hours and clearly at baseline by 6 hours | 2.01 ± 0.75 (×10^3)/mL | 0.41 ± 0.19 (×10^3)/mL | 0.10 ± 0.04 (×10^3)/mL | 

— patent publication US20250381168A1, “VLA4 INHIBITORS AND USES THEREOF” (Washington University, priority 2022, published 2025)
